Assay results taken from BindingDB's records for patent US20250289799 (Jiangsu Yahong Meditech Co., 2025).

biological target: Ubiquitin carboxyl-terminal hydrolase 1/WD repeat-containing protein 48 (Homo sapiens, UniProt O94782+Q8TAF3); assay: In Vitro USP1  Inhibitory Activity
Description: Experimental Methods1) Preparation of 1× assay buffer: 1× assay buffer (modified Tris buffer) was prepared;2) Compound dilution: The compound was transferred to the assay plate by Echo.

Chain of Ubiquitin carboxyl-terminal hydrolase 1/WD repeat-containing protein 48 (O94782 whole entry): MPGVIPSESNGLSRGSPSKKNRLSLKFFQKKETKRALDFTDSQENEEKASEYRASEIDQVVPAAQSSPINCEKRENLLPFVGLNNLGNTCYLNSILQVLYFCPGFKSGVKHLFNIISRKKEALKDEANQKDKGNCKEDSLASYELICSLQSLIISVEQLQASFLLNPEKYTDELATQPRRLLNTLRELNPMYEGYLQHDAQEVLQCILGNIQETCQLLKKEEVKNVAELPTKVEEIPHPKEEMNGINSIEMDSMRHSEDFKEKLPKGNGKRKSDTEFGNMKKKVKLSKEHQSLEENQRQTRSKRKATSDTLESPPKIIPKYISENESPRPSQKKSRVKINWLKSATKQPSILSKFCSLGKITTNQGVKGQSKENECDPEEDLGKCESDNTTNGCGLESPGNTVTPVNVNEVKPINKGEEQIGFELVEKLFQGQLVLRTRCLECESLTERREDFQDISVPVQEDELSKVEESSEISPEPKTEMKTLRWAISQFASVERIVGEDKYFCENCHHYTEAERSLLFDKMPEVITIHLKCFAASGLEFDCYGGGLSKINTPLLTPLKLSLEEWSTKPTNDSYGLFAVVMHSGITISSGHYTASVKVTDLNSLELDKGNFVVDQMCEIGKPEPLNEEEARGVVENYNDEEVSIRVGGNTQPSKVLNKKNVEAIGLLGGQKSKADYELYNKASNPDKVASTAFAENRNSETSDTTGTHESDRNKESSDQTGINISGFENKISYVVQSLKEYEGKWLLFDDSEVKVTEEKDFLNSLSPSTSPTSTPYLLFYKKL
Chain of Ubiquitin carboxyl-terminal hydrolase 1/WD repeat-containing protein 48 (Q8TAF3 whole entry): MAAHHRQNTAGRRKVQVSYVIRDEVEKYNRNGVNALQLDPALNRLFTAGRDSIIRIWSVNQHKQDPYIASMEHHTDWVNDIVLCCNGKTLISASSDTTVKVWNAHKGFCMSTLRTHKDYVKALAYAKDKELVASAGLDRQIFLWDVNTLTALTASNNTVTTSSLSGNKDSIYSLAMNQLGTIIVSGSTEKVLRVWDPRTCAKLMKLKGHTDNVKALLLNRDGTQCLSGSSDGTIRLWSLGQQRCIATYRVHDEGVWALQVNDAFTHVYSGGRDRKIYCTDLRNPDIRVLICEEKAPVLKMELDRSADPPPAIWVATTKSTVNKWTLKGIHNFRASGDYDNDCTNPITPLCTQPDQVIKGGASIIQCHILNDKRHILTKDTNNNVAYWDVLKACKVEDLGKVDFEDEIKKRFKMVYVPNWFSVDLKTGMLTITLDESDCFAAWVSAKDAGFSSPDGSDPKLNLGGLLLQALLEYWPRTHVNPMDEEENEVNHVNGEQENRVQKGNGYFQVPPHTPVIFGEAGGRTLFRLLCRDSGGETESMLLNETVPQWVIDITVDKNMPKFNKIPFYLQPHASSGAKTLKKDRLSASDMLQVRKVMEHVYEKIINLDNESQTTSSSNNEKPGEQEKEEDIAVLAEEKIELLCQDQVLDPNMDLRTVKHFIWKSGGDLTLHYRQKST

Compound | IC50 [nM]
Cc1ncn(C(C)C)c1-c1nc(NCc2ccc(-c3nc(C(F)(F)F)cn3C)cc2)c2occc2n1 [US20250289799, Example 149] | 69.2
COc1cnc(-c2c(Cl)cnn2C(C)C)nc1N(C)CC12CCC(c3nc(C(F)(F)F)cn3C)(CC1)OC2 [US20250289799, Example 211] | 6.1
CC(C)c1ccccc1-c1ncc(N2CCOCC2)c(NCc2ccc(-c3nc(C(F)(F)F)cn3C)cc2)n1 [US20250289799, Example 87] | 6.2
COc1cc(-n2nc(C(F)(F)F)cc2C)ccc1CNc1nc(-c2c(OC)ncnc2C2CC2)nc2ccoc12 [US20250289799, Example 121] | 8.3
COc1cnc(-c2c(OC)ncnc2C2CC2)nc1N(C)Cc1ccc(-c2nc(C(F)(F)F)cn2C(C)C)cc1 [US20250289799, Example 93] | 1.5
COc1cnc(-c2cccnc2C(C)C)nc1NCc1ccc(-n2nc(C(F)(F)F)cc2C)cc1 [US20250289799, Example 158] | 2.1
COc1cnc(-c2c(C)cnn2C(C)C)nc1NCc1ccc(-c2nc(C(F)(F)F)cn2C)cc1 [US20250289799, Example 202] | 3
COc1cnc(-c2c(OC)ncnc2C2CC2)nc1NCc1ccc(-c2nc(C)cn2C(F)F)cc1 [US20250289799, Example 105] | 60
COc1cnc(-c2ccccc2C(C)C)nc1NCC1CCC(c2ccccn2)CC1 (stereo not given) [US20250289799, Example 63] | 3.3
COc1cnc(-c2c(C)cnn2C(C)C)nc1N(C)Cc1ccc(-n2nc(C(F)(F)F)cc2C)cc1 [US20250289799, Example 201] | 12
COc1cnc(-c2c(OC)ncnc2C2CC2)nc1NCc1ccc2c(c1)CCN(C(C)C)C2=O [US20250289799, Example 97] | 263
COc1cnc(-c2cccc3ccn(C)c23)nc1NCc1ccc(-c2nc(C(F)(F)F)cn2C)cc1 [US20250289799, Example 143] | 31
Cc1ncn(C(C)C)c1-c1nc(NCC23CCC(c4ccc(C(F)(F)F)cn4)(CC2)CC3)c2occc2n1 [US20250289799, Example 150] | 431
C#Cc1cnc(-c2c(OC)ncnc2C2CC2)nc1NCc1ccc(-c2nc(C(F)(F)F)cn2C)cc1 [US20250289799, Example 132] | 6
COc1cnc(-c2c(C)noc2C(C)C)nc1NCC1CCN(c2nc(C(F)(F)F)cn2C)CC1 [US20250289799, Example 187] | 23.5
COc1cnc(-c2ccccc2C(C)C)nc1N(C)Cc1ccc(-c2ccccn2)cc1 [US20250289799, Example 1] | 26
COc1cnc(-c2c(OC)ncnc2C2CC2)nc1N(Cc1ccc(-c2nc(C(F)(F)F)cn2C)cc1)C1CCOC1 (stereo not given) [US20250289799, Example 140] | 73
COc1cnn(C(C)C)c1-c1nc(NCc2ccc(-c3ccccn3)cc2)c2occc2n1 [US20250289799, Example 181] | 27
COc1cnc(-c2ccccc2C(C)C)nc1NCc1ccc(-c2ccc(C)cn2)cc1 [US20250289799, Example 66] | 5.6
CC(C)Oc1cnc(-c2ccccc2C(C)C)nc1N(C)CC1CCN(c2nc(C(F)(F)F)cn2C)CC1 [US20250289799, Example 70] | 19.4
Cc1cc(C(F)(F)F)nn1-c1ccc(CNc2nc(-c3c(Cl)cnn3C(C)C)nc3ccoc23)cc1 [US20250289799, Example 168] | 1.2
COc1cnc(-c2ccccc2N(C)C)nc1NCc1ccc(-c2nc(C(F)(F)F)cn2C)cc1 [US20250289799, Example 159] | 1.7

Compound | IC50 [nM]
COc1cc(-c2nc(C(F)(F)F)cn2C)ccc1CNc1nc(-c2c(OC)ncnc2C2CC2)ncc1OC(F)F [US20250289799, Example 136] | 17
COc1cnc(-c2c(OC)ncnc2C2CC2)nc1NCC1CCN(c2nc(C(F)(F)F)cn2C)CC1 [US20250289799, Example 95] | 8.4
COc1cnc(-c2cccnc2C2CC2)nc1N(C)CC1CCN(c2ccccn2)CC1 [US20250289799, Example 151] | 72
COc1cc(-c2nc(C(F)(F)F)cn2C)ccc1CNc1nc(-c2c(OC)ncnc2C2CC2)ncc1OC [US20250289799, Example 100] | 4.1
c1ccc(-c2ccc(CNc3nc(-c4cccnc4C4CC4)nc4ccoc34)cc2)nc1 [US20250289799, Example 155] | 12
COc1cnc(-c2c(OC)cnn2C(C)C)nc1NCc1ccc(-c2ccccn2)cc1 [US20250289799, Example 178] | 110
CC(C)c1ccccc1-c1ncc(C(F)(F)F)c(NCC2CCN(c3ccccn3)CC2)n1 [US20250289799, Example 76] | 30.1
COc1ncnc(C2CC2)c1-c1nc(NCc2ccc(OC3CC(OC)C3)cc2)c2occc2n1 (stereo not given) [US20250289799, Example 118] | 58
COc1ncnc(C2CC2)c1-c1ncc(C#N)c(NCc2ccc(-c3nc(C(F)(F)F)cn3C)cc2)n1 [US20250289799, Example 131] | 7.4
COc1cnc(-c2ccccc2C(C)C)nc1NCc1ccc(OCc2ccccn2)cc1 [US20250289799, Example 67] | 5.3
COc1cnc(-c2ccccc2N(C)C)nc1NCc1ccc(-n2nc(C(F)(F)F)cc2C)cc1 [US20250289799, Example 160] | 3.6
COc1cnc(-c2c(OC)ncnc2C2CC2)nc1NCc1ccc(-c2nc(C(F)(F)F)cn2C(C)C)cc1 [US20250289799, Example 106] | 2.9
Cn1cc(C(F)F)nc1-c1ccc(CNc2nc(-c3cncnc3C3CC3)nc3ccoc23)cc1 [US20250289799, Example 197] | 133
COc1cnc(-c2c(C)noc2C(C)C)nc1N(C)CC1CCN(c2ccccn2)CC1 [US20250289799, Example 186] | 66
CC(C)n1ncc(Cl)c1-c1nc(NCc2ccc(-c3nc(C(F)(F)F)cn3C)cc2)c2occc2n1 [US20250289799, Example 167] | 0.45
COc1cnc(-c2c(OC)ncnc2C2CC2)nc1N(Cc1ccc(-c2nc(C(F)(F)F)cn2C)cc1)OC [US20250289799, Example 142] | 25
COc1cnc(-c2cncnc2C2CC2)nc1NCc1ccc(-c2nc(C(F)(F)F)cn2C)cc1 [US20250289799, Example 194] | 51
Cc1noc(C(C)C)c1-c1ncc(OC(F)F)c(NCc2ccc(-c3nc(C(F)(F)F)cn3C)cc2)n1 [US20250289799, Example 190] | 33
COc1cnc(-c2ccccc2C(C)C)nc1N(C)Cc1ccc(-c2nc(C(F)(F)F)cn2C)cc1 [US20250289799, Example 3] | 2.8
COc1cnc(-c2c(OC)cnn2C2CC2)nc1NCc1ccc(-c2ccccn2)cc1 [US20250289799, Example 183] | 164
CCOCCOc1ccc(CNc2nc(-c3ccccc3C(C)C)nc3ccoc23)cc1 [US20250289799, Example 79] | 4.5
COc1ncnc(C2CC2)c1-c1ncc2c(n1)N(Cc1ccc(-c3ccccn3)cc1)CCO2 [US20250289799, Example 9] | 35

Compound | IC50 [nM]
CCOCCOc1ccc(CNc2nc(-c3c(OC)ncnc3C3CC3)ncc2OC)cc1 [US20250289799, Example 99] | 15.1
CC(C)c1ccccc1-c1nc(NCc2ccc(-c3ccccn3)cc2)c2[nH]ccc2n1 [US20250289799, Example 36] | 22.4
CCOCCOc1ccc(CNc2nc(-c3c(OC)ncnc3C3CC3)nc3ccoc23)cc1 [US20250289799, Example 117] | 13.8
CC(C)c1ccccc1-c1ncc(C(F)(F)F)c(NCc2ccc(-c3nc(C(F)(F)F)cn3C)cc2)n1 [US20250289799, Example 17] | 3.9
COc1cnc(-c2cccnc2C2CC2)nc1NCc1ccc(-n2nc(C(F)(F)F)cc2C)cc1 [US20250289799, Example 154] | 6.2
COc1ncnc(C2CC2)c1-c1nc(NCc2ccc(-c3ccccn3)cc2)c2[nH]ccc2n1 [US20250289799, Example 37] | 51
COc1cc(-n2nc(C(F)(F)F)cc2C)ccc1CNc1nc(-c2ccccc2C(C)C)nc2ccoc12 [US20250289799, Example 83] | 4.4
CC(C)c1ccccc1-c1ncc(OC(F)F)c(NCc2ccc(-c3nc(C(F)(F)F)cn3C)cc2)n1 [US20250289799, Example 86] | 1.1
COc1cnc(-c2c(OC)ncnc2C2CC2)nc1N(C)CC12CCC(c3nc(C(F)(F)F)cn3C)(CC1)OC2 [US20250289799, Example 212] | 19
COc1cnc(-c2c(OC)ncnc2C2CC2)nc1N(C)CC1CCN(c2nc(C(F)(F)F)cn2C)CC1 [US20250289799, Example 92] | 3.3
COc1cnc(-c2c(OC)ncnc2C2CC2)nc1N(C#N)Cc1ccc(-c2nc(C(F)(F)F)cn2C)cc1 [US20250289799, Example 206] | 3.5
COc1cnc(-c2ccccc2C(C)C)nc1NCc1ccc(-c2nccn3ccnc23)cc1 [US20250289799, Example 11] | 22
COc1cc(CNc2nc(-c3c(OC)ncnc3C3CC3)ncc2OC)ccc1-c1nc(C(F)(F)F)cn1C [US20250289799, Example 101] | 15
COc1cnc(-c2ccccc2C(C)C)nc1N(C)CC1CCN(c2ccccn2)CC1 [US20250289799, Example 2] | 14
COc1ncnc(C2CC2)c1-c1ncc(OC(C)C)c(N(C)Cc2ccc(-c3nc(C(F)(F)F)cn3C)cc2)n1 [US20250289799, Example 109] | 5.3
Cc1cc(C(F)(F)F)nn1-c1ccc(CNc2nc(-c3ccccc3C3CC3)nc3ccoc23)cc1 [US20250289799, Example 174] | 5.1
Cc1cc(C(F)(F)F)nn1-c1ccc(CN2C(=O)COc3cnc(-c4ccccc4C(C)C)nc32)cc1 [US20250289799, Example 15] | 6.8
C#Cc1cnc(-c2ccccc2C(C)C)nc1NCc1ccc(-c2nc(C(F)(F)F)cn2C)cc1 [US20250289799, Example 85] | 0.47
COc1cnc(-c2c(OC)ncnc2C2CC2)nc1NCc1ccc(-c2nc(C(F)(F)F)cn2CF)cc1 [US20250289799, Example 107] | 16
COc1cnc(-c2c(OC)ncnc2C2CC2)nc1NCc1ccc(-c2nc(C(F)(F)F)cn2C)cc1 [US20250289799, Example 29] | 4.8
CC(C)n1ncc(Cl)c1-c1nc(NCc2ccc(-c3ccccn3)cc2)c2occc2n1 [US20250289799, Example 166] | 2.1
